Measured values reported in patent publication US5484940A, “Substituted 3-indolyl-5-pyrazolone compounds” (priority 1994, dated 1996).

How the values were obtained:
human cortical neurons = experiment: Inhibition of toxicity of β-amyloid peptide to human neuronal cells (alamarBlue); type: cell-based; details: 50 μM β-amyloid peptide, 2-3 days; on average where more than one duplicate experiment; compound concentration not stated
Method: (§1) The purpose of this test is to determine the effect of 3-indolyl-5-pyrazolone compounds on the toxicity of β-amyloid peptide to neuronal cells.
Primary Human Cortical Cell Culture
Primary human cortical cultures were prepared using a modification of the procedure described by Seubert, et al.^21 Following filtration through Nitex nylon screens, cortical tissue was resuspended in a trypsin/EDTA solution (0.05% trypsin+0.53 mM EDTA in HBSS; GIBCO Laboratories, Grand Island, N.Y., USA) and kept at 37° C. for 20 minutes. The trypsin was then inactivated by resuspending the cells in serum-containing medium (MEM/FBS: Modified Eagles' Medium (MEM) containing 1% glucose, 1 mM sodium pyruvate, 1 mM glutamine, and supplemented with 10% fetal bovine serum (GIBCO). Cells were then pelleted by centrifugation and resuspended in a chemically-defined medium (MEM/B27: MEM containing B27 supplement in place of FBS; GIBCO). Polyethyleneimine (PEI; Sigma Chemical Company, St. Louis, Mo., USA)-coated 6.4 mm (96-well) dishes were rinsed once with MEM/FBS, and then seeded at 0.75 to 1.25×10^5 cells per well in 0.1 mL MEM/B27. Cultures were maintained in a H2 O-saturated incubator with an atmosphere of 95% air/5% CO 2 at 37° C. The culture medium was exchanged twice weekly. Cell viability was visually assessed by phase contrast microscopy and quantified by measuring the reduction of alamarBlue™ (Alamar Biosciences, Inc., Sacramento, Calif., USA).
(§2) β-amyloid peptide stock solutions were prepared as 1 mM stocks in sterile, doubly distilled water immediately prior to addition to cultures. Rat cortical neurons were exposed to β-amyloid peptide by removing the culture medium and replacing it with DMEM/N2 (GIBCO Laboratories,Grand Island, N.Y., USA) containing 10 to 20 μM β-amyloid peptide. Human cortical neurons were exposed to test compound plus β-amyloid peptide by removing the culture medium and replacing it with MEM containing 50 μM β-amyloid peptide. Cultures were maintained for 2-3 days before neuronal survival was quantified using alamarBlue™.
(§3) The alamarBlue™ assay incorporates a fluorometric/colorimetric metabolic indicator (Alamar Biosciences, Inc. Sacramento, Calif., USA). Viable cells convert alamarBlue™ from an oxidized (non-fluorescent, blue) form to a reduced (fluorescent, red) form. Assays were preformed by replacing the culture media with a 10% alamarBlue™ solution in DMEM (rat cortical cultures) or MEM (human cortical cultures).

rat cortical neurons = experiment: Inhibition of toxicity of β-amyloid peptide to rat neuronal cells (alamarBlue); type: cell-based; details: 10 to 20 μM β-amyloid peptide, 2-3 days; on average where more than one duplicate experiment; compound concentration not stated
Method: as §1
Primary rat cortical cultures were established from 18 day rat fetuses. Cortical tissue was dissociated by incubation in a trypsin/EDTA solution (0.05% trypsin+0.53 mM EDTA in HBSS; GIBCO Laboratories, Grand Island, N.Y., USA) for 20 minutes at 37° C. The trypsin was then inactivated by resuspending the cells in serum-containing medium (DMEM/FBS): Dulbecco's Modified Eagles' Medium (DMEM) containing 4.5 g/L glucose, 1 mM sodium pyruvate, 1 mM glutamine, 100 Units/mL penicillin, 100 μg/mL streptomycin, and supplemented with 10% heat-inactivated fetal bovine serum (GIBCO Laboratories, Grand Island, N.Y., USA). Cells were then pelleted by centrifugation and resuspended in a chemically-defined medium (DMEM/B27: DMEM containing B27 supplement; GIBCO Laboratories, Grand Island, N.Y., USA) in place of FBS. Polyethyleneimine (PEI; Sigma Chemical Company, St. Louis, Mo., USA)-coated 6.4 mm (96-well) dishes were timed once with DMEM/FBS, and then seeded at 0.75 to 1.25×10^5 cells per well in 0.1 mL DMEM/B27. Cultures were maintained in a H2 O-saturated incubator with an atmosphere of 90% air/10% CO2 at 37° C. Cell viability was visually assessed by phase contrast microscopy and quantified by measuring the reduction of alamarBlue™ (Alamar biosciences, Inc., Sacramento, Calif., USA) as described below. Serum replacement with B27 supplement yields nearly pure neuronal cultures as judged by immunocytochemistry for glial fibrillary acidic protein and neuron-specific enolase (Brewer, et al.^20)
as §2, §3

293 751 SWE cells = experiment: Cytotoxicity (MTT) in 293 751 SWE cells; type: cell-based, human; details: concentration not given
Method: (§4) This screening assay employed cells (K293=human kidney cell line) which were stably transfected with the gene for amyloid precursor protein 751 (APP751) containing the double mutation Lys651 Met652 to Asn651 Leu652 (APP751 numbering) in the manner described in International Patent Application Publication No. 94/10569^1 and Citron et al.^16. This mutation is commonly called the Swedish mutation and the cells, designated as "293 751 SWE", were plated in Coming 96-well plates at 1.5-2.5×10^4 cells per well in Dulbecco's minimal essential media plus 10% fetal bovine serum. Cell number is important in order to achieve β-amyloid ELISA results within the linear range of the assay (~0.2 to 2.5 ng per mL).
Cytotoxic effects of the compounds were measured by a modification of the method of Hansen, et al.^17. To the cells remaining in the tissue culture plate was added 25 μL of a 3,(4,5-dimethylthiazol-2-yl)2,5-diphenyltetrazolium bromide (MTT) stock solution (5 mg/mL) to a final concentration of 1 mg/mL. Cells were incubated at 37° C. for one hour, and cellular activity was stopped by the addition of an equal volume of MTT lysis buffer (20% w/v sodium dodecylsulfate in 50% dimethylformamide, pH 4.7). Complete extraction was achieved by overnight shaking at room temperature. The difference in the OD562nm and the OD650nm was measured in a Molecular Device's UVmax microplate reader as an indicator of the cellular viability.

[1] = system: β-amyloid peptide production; experiment: Cellular screen for inhibitors of β-amyloid production (ELISA, 293 751 SWE cells); type: cell-based, human; details: 2 h pretreatment + 2 h, normalized for cytotoxicity (MTT), concentration not given
Method: as §4
Following overnight incubation at 37° C. in an incubator equilibrated with 10% carbon dioxide, media were removed and replaced with 200 μL of a substituted 3-indolyl-5-pyrazolone (drug) containing media per well for a two hour pretreatment period and cells were incubated as above.
At the end of the pretreatment period, the media were again removed and replaced with fresh drag containing media as above and cells were incubated for an additional two hours. After treatment, plates were centrifuged in a Beckman GPR at 1200 rpm for five minutes at room temperature to pellet cellular debris from the conditioned media. From each well, 100 μL of conditioned media or appropriate dilutions thereof were transferred into an ELISA plate precoated with antibody 266 against amino acids 13-28 of β-amyloid peptide as described in International Patent Application Publication No. 94/10569^1 and stored at 4° C. overnight. An ELISA assay employing labelled antibody 6C6 against amino acids 1-16 of β-amyloid peptide was run the next day to measure the amount of β-amyloid peptide produced.
The results of the β-amyloid peptide ELISA were fit to a standard curve and expressed as ng/mL β-amyloid peptide. […] All results are the mean and standard deviation of at least six replicate assays.

Row | SMILES | inhibition of the toxicity of β-amyloid peptide to human neuronal cells (human cortical neurons) | inhibition of the toxicity of β-amyloid peptide to rat neuronal cells (rat cortical neurons) | cytotoxic effect on the 293 751 SWE cells (293 751 SWE cells) | reduction of β-amyloid peptide production as compared to control [1]
1 | O=C1CC(Cc2cn(C(=O)c3ccc(Cl)cc3)c3ccccc23)=NN1 [A, 3-[1-(4-chlorobenzoyl)-3-indolylmethyl]-5-pyrazolone] | at least 25% | at least 10% |  | 
2 | O=C1CC(CCc2c[nH]c3ccccc23)=NN1C1CCCCC1 [D, 3-[3-indolylethyl]-1-cyclohexyl-5-pyrazolone] | at least 25% | < 10% |  | 
3 | COc1ccc2c(c1)c(CC1=NN(c3ccccc3C)C(=O)C1)c(C)n2C(=O)c1ccc(Cl)cc1 [E] | at least 25% | at least 10% |  | 
4 | COc1ccc2c(c1)c(CC1=NN(c3ccccc3)C(=O)C1)c(C)n2C(=O)c1ccc(Cl)cc1 [Example 8, 3-[1-(4-chlorobenzoyl)-5-methoxy-2-methyl-3-indolylmethyl]-1-phenyl-5-pyrazolone] | at least 25% | < 10% | did not have a significant cytotoxic effect | at least 20%
5 | COc1ccc2c(c1)c(CC1=NN(C3CCC3)C(=O)C1)c(C)n2C(=O)c1ccc(Cl)cc1 [Example 10, 3-[1-(4-chlorobenzoyl)-5-methoxy-2-methyl-3-indolylmethyl]-1-cyclobutyl-5-pyrazolone] | at least 25% |  |  | 
6 | COc1ccc2c(c1)c(CC1=NNC(=O)C1)c(C)n2C(=O)c1ccc(Cl)cc1 [Example 15, 3-[1-(4-chlorobenzoyl)-5-methoxy-2-methyl-3-indolylmethyl]-5-pyrazolone] | at least 25% | < 10% |  | < 20%
7 | O=C1CC(Cc2c[nH]c3ccccc23)=NN1C1CCCCC1 [Example 18, 3-(3-indolylmethyl)-1-cyclohexyl-5-pyrazolone] | at least 25% | < 10% |  | 
8 | O=C1CC(Cc2cn(C(=O)c3ccc(Cl)cc3)c3ccccc23)=NN1C1CCCCC1 [Example 19, 3-[1-(4-chlorobenzoyl)-3-indolylmethyl]-1-cyclohexyl-5-pyrazolone] | at least 25% |  | did not have a significant cytotoxic effect | at least 20%
9 | COc1ccc(N2N=C(Cc3c(C)n(C(=O)c4ccc(Cl)cc4)c4ccc(OC)cc34)CC2=O)cc1 [Example 23, 3-[1-(4-chlorobenzoyl)-5-methoxy-2-methyl-3-indolylmethyl]-1-(4-methoxyphenyl)-5-pyrazolone] | at least 25% | < 10% | did not have a significant cytotoxic effect | at least 20%
10 | COc1ccc2c(c1)c(CC1=NN(c3cccc(C)c3)C(=O)C1)c(C)n2C(=O)c1ccc(Cl)cc1 [Example 31, 3-[1-(4-chlorobenzoyl)-5-methoxy-2-methyl-3-indolylmethyl]-1-(3-methylphenyl)-5-pyrazolone] | at least 25% |  | did not have a significant cytotoxic effect | at least 20%
11 | COc1ccc2c(c1)c(CC1=NN(c3cccc(F)c3)C(=O)C1)c(C)n2C(=O)c1ccc(Cl)cc1 [Example 32, 3-[1-(4-chlorobenzoyl)-5-methoxy-2-methyl-3-indolylmethyl]-1-(3-fluorophenyl)-5-pyrazolone] | at least 25% |  | did not have a significant cytotoxic effect | at least 20%
12 | COc1ccc2c(c1)c(CC1=NN(c3cccc(N)c3)C(=O)C1)c(C)n2C(=O)c1ccc(Cl)cc1 [Example 40, 3-[1-(4-chlorobenzoyl)-5-methoxy-2-methyl-3-indolylmethyl]-1-(3-aminophenyl)-5-pyrazolone] | at least 25% |  |  | < 20%
13 | COc1ccc2c(c1)c(CC1=NN(C3CCCCC3)C(=O)C1=Cc1ccccc1)c(C)n2C(=O)c1ccc(Cl)cc1 [Example 45, 3-[1-(4-chlorobenzoyl)-5-methoxy-2-methyl-3-indolylmethyl]-1-cyclohexyl-4-benzylidene-5-pyrazolone] | < 25% |  |  | < 20%
14 | Cc1c(CC2=NN(C3CCCCC3)C(=O)C2)c2cc(Cl)ccc2n1C(=O)c1ccc(Cl)cc1 [Example 62, 3-[1-chlorobenzoyl-5-chloro-2-methyl-3-indolylmethyl]-1-cyclohexyl-5-pyrazolone] |  |  | did not have a significant cytotoxic effect | at least 20%
15 | Cc1c(CC2=NN(c3cccc(C(F)(F)F)c3)C(=O)C2)c2cc(Cl)ccc2n1C(=O)c1ccc(Cl)cc1 [Example 63, 3-[1-(4-chlorobenzoyl)-5-chloro-2-methyl-3-indolylmethyl]-1-(3-trifluoromethylphenyl)-5-pyrazolone] |  |  | did not have a significant cytotoxic effect | at least 20%
